Reference: patent publication US20170334927A1 (Shanghai Sun-sail Pharmaceutical Science & Technology Co., …, priority 2014, published 2017)
Values after ≈ are worked out from the molar mass of the structure shown.

Columns and labels:
[1] = Drug metabolism test (pharmacokinetics, oral, mice); assay type: in vivo, ICR mice; conditions: 10 mg/kg; for AUC(0-inf) / AUC(0-t) / Cmax / MRT / Tmax / half-life: male, ICR, mouse, po, orally (intragastric), plasma; for pharmacokinetic properties (in words): orally, judgement on Table 6
Description: 18 healthy male ICR mice with a body weight of 18-22 g were administered drugs by intragastric administration, with an administration dose of 10 mg/kg and an administration volume of 10 mL/kg, respectively. These mice were fasted for 12 h before the test and had free access to drinking water. These mice were fed 2 h after administration uniformly. 0.3 mL of blood was taken from the postocular venous plexus of a mouse at the set time points, placed in a heparinized test tube and centrifuged for 10 min at 3000 rpm; and plasma was separated and frozen in a refrigerator at −20° C. When measured, the sample was treated through the method for treating the plasma sample, and the drug concentration in plasma was determined by LC-MS/MS and the pharmacokinetic parameters of the drug were calculated.

physchem = assay type: physicochemical; conditions: for Solubility: 3 days, pH 1.2; for solubility at 3 days: pH 1.2, simulated gastric fluid, thermodynamic from solid
Description: 3-5 mg of compound to be tested was added to 0.5 mL of aqueous HCl solution (pH=1.2) and the mixture was shaken for three days on a shaker; the sample was centrifuged for 5 min at 10,000 rpm in a centrifuge; a volumetric flask (50 mL) was loaded with 2 mL of supernatant and water was added to a volume at the graduation mark to prepare a sample solution; and 2.6 mg of sample was precisely weighed into a volumetric flask (50 mL), an appropriate amount of methanol was added to dissolve the sample, and water was added to a volume at the graduation mark and shaken well to give a control sample solution. 20 μL of sample solution and control sample solution were each injected, and tested by liquid chromatography. The solubility was calculated as follows:
Solubility (mg/mL)=C (control)*25*A (sample)/A (control)
C (control): concentration of the control sample
A (sample): peak area of the liquid chromatogram of the sample solution
A (control): peak area of the liquid chromatogram of the control sample solution

[2] = test system: Mycobacterium tuberculosis H37Rv; assay: Activity test for Mycobacterium tuberculosis (MIC, H37Rv); assay type: cell-based; conditions: for anti Mycobacterium tuberculosis activity (MIC against H37Rv), times of that of PA-824: relative to PA-824; for anti Mycobacterium tuberculosis activity (MIC against H37Rv), times of that of ethambutol: relative to ethambutol; for MIC: Mycobacterium tuberculosis H37Rv, liquid medium, 37° C., read-out: Minimum inhibitory concentration against H37Rv
Description: The tested strain H37Rv was transferred to liquid medium and cultured for 2 weeks at 37° C.; a small amount of the cultured bacterial solution was pipetted and placed in 4 mL of liquid medium; 10-20 sterile glass beads with a diameter of 2-3 mm were added; the mixture was shaken for 20-30 s and left to sediment for 10-20 min; the supernatant of the bacterial suspension was pipetted and adjusted to a turbidity of 1 MCF (equivalent to 1×10^7 CFU/mL) with the liquid medium for use. Each drug was dissolved to 1 mg/mL with an appropriate amount of DMSO and filtered with a 0.22 μm filter. Then, the solution was diluted to a desired experimental concentration with the liquid medium. The final concentrations of the tested drugs were set as follows: 0.001 μg/mL, 0.002 μg/mL, 0.0039 μg/mL, 0.0078 μg/mL, […], 0.03125 μg/mL, 0.0625 μg/mL, 0.125 μg/mL, 0.25 μg/mL, 0.5 μg/mL and 1 μg/mL, a total of 11 concentration gradients. 100 μL of each of the above-mentioned drug solutions was added to a 96-well microwell plate, then 100 μL bacterial solution with a concentration of 1 mg/mL was added to allow the drug concentration to reach the final set concentration, and cultured at 37° C. Three groups in parallel were set for each drug dilution with inoculation amounts of 100%, 10% and 1%, respectively, while no drug was added to the control group.

hERG potassium channel = target: T1, hERG potassium channel (Homo sapiens, UniProt Q12809); assay: Inhibitory effect on hERG potassium ion channel (whole cell patch clamp, HEK-293 cells); assay type: cell-based; conditions: hERG potassium current, room temperature, read-out: IC50 (inhibition on hERG)
T1 construct: host or cells: HEK-293
T1 sequence (Q12809 whole entry): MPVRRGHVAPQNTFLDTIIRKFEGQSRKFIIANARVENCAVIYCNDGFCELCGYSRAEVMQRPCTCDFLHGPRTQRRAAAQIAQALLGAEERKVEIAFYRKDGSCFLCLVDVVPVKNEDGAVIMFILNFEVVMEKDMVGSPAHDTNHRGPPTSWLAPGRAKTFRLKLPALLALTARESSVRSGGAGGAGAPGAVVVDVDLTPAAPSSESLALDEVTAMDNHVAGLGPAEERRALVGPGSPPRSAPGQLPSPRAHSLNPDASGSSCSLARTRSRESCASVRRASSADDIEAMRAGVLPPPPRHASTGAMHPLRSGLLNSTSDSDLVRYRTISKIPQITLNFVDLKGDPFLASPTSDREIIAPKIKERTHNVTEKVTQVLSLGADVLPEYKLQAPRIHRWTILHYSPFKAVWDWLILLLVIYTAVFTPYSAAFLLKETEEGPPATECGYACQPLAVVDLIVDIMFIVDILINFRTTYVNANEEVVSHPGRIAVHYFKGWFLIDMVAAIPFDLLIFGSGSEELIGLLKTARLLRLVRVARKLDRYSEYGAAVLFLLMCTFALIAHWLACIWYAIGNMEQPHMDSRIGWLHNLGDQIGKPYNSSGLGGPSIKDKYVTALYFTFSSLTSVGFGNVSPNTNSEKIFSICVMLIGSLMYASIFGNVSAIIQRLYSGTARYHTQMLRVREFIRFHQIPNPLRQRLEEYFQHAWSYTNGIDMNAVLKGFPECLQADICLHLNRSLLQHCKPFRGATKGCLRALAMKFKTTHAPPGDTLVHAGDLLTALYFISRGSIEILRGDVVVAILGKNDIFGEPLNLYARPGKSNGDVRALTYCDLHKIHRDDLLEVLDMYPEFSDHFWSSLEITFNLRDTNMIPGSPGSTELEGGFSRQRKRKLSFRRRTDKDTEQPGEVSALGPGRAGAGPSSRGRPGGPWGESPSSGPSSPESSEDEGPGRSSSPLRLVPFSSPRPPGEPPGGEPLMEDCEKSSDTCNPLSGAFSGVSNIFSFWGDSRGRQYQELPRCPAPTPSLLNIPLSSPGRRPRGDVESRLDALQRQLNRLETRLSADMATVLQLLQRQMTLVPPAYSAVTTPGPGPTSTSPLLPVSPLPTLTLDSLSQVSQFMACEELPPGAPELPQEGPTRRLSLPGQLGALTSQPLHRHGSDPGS
Description: hERG potassium channel currents were recorded with the whole cell patch clamp technique at room temperature in HEK-293 cells (Creacell™, France) expressing hERG stably. A glass microelectrode with a tip resistance of about 1-4 MΩ was connected to the Axon 200A patch clamp amplifier. Clamp voltage and data record were controlled by a computer via the Axon DigiData 1322A A/D converter with the clampex 9.2 software; the cells were clamped at −80 mV; and the step voltage for inducing the hERG potassium current (IhERG) was changed from −80 mV to +20 mV by providing a 2 s depolarization voltage, repolarized to −40 mV and returned to −80 mV after 4 s. This voltage step was given respectively before and after administration to induce the hERG potassium current.
Data analysis and processing were performed with the PatchMaster, GraphPad Prism 5 and Excel softwares. The degree of inhibition of different compound concentrations on the hERG potassium current (hERG tail current peak induced at −50 mV) was calculated using the following formula:
Fractional block %=[1−(I/Io)]×100%
in the formula, Fractional block represents the percent inhibition of a compound on the hERG potassium current, and I and Io represent the magnitudes of the hERG potassium current […], respectively.
The IC50 of a compound was calculated using the following equation by fitting: […]
in the equation, I and Io represent the magnitudes of the hERG potassium current […], respectively; [C] is the compound concentration, and n is the Hill coefficient.

SMILES | AUC(0-inf) [1] [ng·h/mL] | AUC(0-t) [1] [ng·h/mL] | Cmax [1] [ng/mL] | MRT [1] [h] | Tmax [1] [h] | half-life [1] [h] | Solubility (physchem) [µg/mL] | solubility at 3 days (physchem) [µg/mL] | anti Mycobacterium tuberculosis activity (MIC against H37Rv), times of that of PA-824 [2] [times] | anti Mycobacterium tuberculosis activity (MIC against H37Rv), times of that of ethambutol [2] [times] | MIC [2] [ng/mL] | pharmacokinetic properties (in words) [1] | IC50 (hERG potassium channel) [µM]
O=[N+]([O-])c1cn2c(n1)OC[C@@H](NCc1ccc(N3CCN(c4ccc(OC(F)(F)F)cc4)CC3)nc1)C2 [Compound 4, (S)-2-nitro-N-((6-(4-(4-(trifluoromethoxy)phenyl)piperazin-1-yl)pyrid-3-yl)methyl)-6,7-dihydro-5H-imidazo[2,1-b][1,3]oxazin-6-amine] | 17300 | 17200 | 1780 | 5.56 | 2 | 3.38 | 1257.2 (≈ 2420 µM) | > 1000 | 32 | 256 | 1.95 (≈ 0.00375 µM) | – | –
CC1CN(c2ccc(OC(F)(F)F)cc2)CCN1c1ncc(CN[C@@H]2COc3nc([N+](=O)[O-])cn3C2)cn1 (stereo partly drawn) [Compound 20, (3S)—N-((6-(2-methyl-4-(4-(trifluoromethoxy)phenyl)piperazin-1-yl)pyrimidin-3-yl)methyl)-7-nitro-3,4-dihydro-2H-imidazo[2,1-b][1,3]oxazin-3-amine] | 21600 | 21500 | 2100 | 4.82 | 2.33 | 2.98 | 1023.8 (≈ 1920 µM) | > 1000 | 32 | 256 | 1.95 (≈ 0.00365 µM) | excellent | –
N#CC1(c2ccc(OC(F)(F)F)cc2)CCN(c2ccc(CN[C@@H]3COc4nc([N+](=O)[O-])cn4C3)cn2)CC1 [Compound 10, (S)-1-(5-(((7-nitro-3,4-dihydro-2H-imidazo[2,1-b][1,3]oxazin-3-yl)amino)methyl)pyridin-2-yl)-4-(4-(trifluoromethoxy)phenyl)piperidine-4-carbonitrile] | 28800 | 28800 | 2030 | 4.68 | 2.18 | 3.35 | – | 522 (≈ 960 µM) | 32 | 256 | 1.95 (≈ 0.00359 µM) | excellent | –
Cc1nc(N2CCN(c3ccc(OC(F)(F)F)cc3)CC2)ncc1CN[C@@H]1COc2nc([N+](=O)[O-])cn2C1 [Compound 36] | 16700 | 16100 | 2020 | 4.71 | 1.87 | 2.87 | 1123.7 (≈ 2100 µM) | > 1000 | 8 | 64 | 7.8 (≈ 0.0146 µM) | – | –
O=[N+]([O-])c1cn2c(n1)OC[C@@H](NCc1cnc(N3CCN(c4ccc(OC(F)(F)F)cc4)CC3)nc1)C2 [Compound 18] | 16700 | 16000 | 1470 | 7.11 | 2 | 5.29 | 1532.1 (≈ 2940 µM) | > 1000 | 8 | 64 | 7.8 (≈ 0.015 µM) | – | 41.1
O=[N+]([O-])c1cn2c(n1)OC[C@@H](NCc1cnc(N3CCN(c4ccc(C(F)(F)F)cc4)CC3)nc1)C2 [Compound 31, (S)-2-nitro-N-((2-(4-(4-(trifluoromethyl)phenyl)piperazin-1-yl)pyrimidin-5-yl)methyl)-6,7-dihydro-5H-imidazo[2,1-b][1,3]oxazin-6-amine] | 22500 | 22400 | 2140 | 4.18 | 1.97 | 3.05 | 1354.8 (≈ 2690 µM) | > 1000 | 8 | 64 | 7.8 (≈ 0.0155 µM) | excellent | 39.5
